In one data set the test system is hiPSCs. The conditions noted are these: Table 1; hiPSCs. The protocol:
(§1) The supernatants of cells treated with digoxin […], lanatoside C 2.5 μm, or DMSO solvent control for 24 hours were harvested. The released LDH was measured using CytoTox 96 […] assay according to the manufacture's instruction (Promega, Southampton, UK). The supernatants and reagents were incubated at room temperature for 20 minutes and then the reaction was stopped by Stop Solution. The absorbance at 490 nm was measured using a plate-reading spectrophotometer (Benchmark Plus Microplate Spectrophotometer System, BIO-RAD, CA, USA).
hiPSC-derived endothelial cells were prepared according in a previous report^34. The hiPSCs were maintained in mTeSR 1 medium ([…] Technologies, Vancouver, Canada) on VTN-N coated plates (Thermo, Wilmington, DE, USA). First, for the stepwise induction of differentiation, we performed a mesoderm induction of hiPSCs seeded in mesoderm induction medium for 48 hours (basal medium with […], […], and 2 ng/ml of Activin A; basal medium was composed of 12 g/L of DMEM/F-12, 3.56 g/L of HEPES, 1.742 g/L of sodium bicarbonate, 14 μg/L of sodium selenite, 10.7 mg/L of recombinant transferrin, 19.4 mg/L of recombinant insulin, and 64 mg/L of L-Ascorbic acid 2-phosphate sesquimagnesium salt hydrate). Second, for the mesoderm to endothelium transition, mesoderm cells were reseeded in vasculogenic medium (basal medium with 2 mg/ml of PVA plus 20 ng/ml of hVEGF-A) for an additional 72 hours. All differentiated cells were plated on VTN pre-coated culture plate dishes. The endothelial cells were analyzed on day 5 by flow cytometry staining with the CD31 (PECAM1, ThermoFisher Scientific, Wilmington, DE, USA) and CD144 (CDH5, ThermoFisher Scientific) antibodies.

Another data set relates to hESCs (H9). Conditions: for LDH assay positive, hESCs: Table 1; for cytotoxic effect (LDH release) in hESCs: 2.5 μM, 24 hours, vs DMSO. The protocol:
The hESC line H9 was purchased from WiCells (Madison, WI, USA)^27. Another hESC line, HUES6, was kindly provided by Dr. Douglas A. Melton (Harvard University, Boston, MA, USA)^28. Cells were maintained on the feeder cells and cultured in Dulbecco's modified Eagle's medium (DMEM)/F12 supplemented with 20% knockout serum replacement, 2 mM L-glutamine, 1% nonessential amino acids, 4 ng/mL human bFGF, and 0.1 mM 2-mercaptoethanol. For the feeder cells culture, C57BL/6 mouse embryonic fibroblasts (MEF) were cultured in the DMEM with 10% FBS and treated cells with 0.01 mg/ml mitomycin C 2-6 hours for inactivation. For the feeder-free culture, hESCs were seeded on the Matrigel Matrix (BD Biosciences, San Jose, CA, USA) coated culture plates and maintained by conditioned medium of MEF (C57BL/6). hBMMSCs were cultured in mesenPRO RS™ kit (Life Technologies, Camarillo, CA, USA). All cells were cultured in a humidified atmosphere containing 5% CO2 at 37° C.
as §1
A general note: LDH in the medium is a marker of cell lysis.

The next data set concerns hESCs. Put plainly: Alamar blue assay, hESCs. It counts as cell-based, human. The conditions noted are these: FIG. 12. The method, then: Alamar blue assay measured the relative cell number. In the cells, we added 1/10 of Alamar Blue Viability Assay reagent to the total volume of the mixture (Biotium; Fremont, CA, USA). The cells were incubated overnight at 37° C. The resulted were quantified by the measurement of optical density (OD) absorbance values at 570 nm and 600 nm, and the relative cell number was calculated.
On the technique in general: Alamar Blue is a resazurin reagent that responds to reducing activity.

Data set [1] relates to hESC-hepatocyte endoderm cells. Put plainly: LDH cytotoxicity assay in hESC-derived hepatocyte endoderm. It counts as cell-based, human. Conditions: Table 1. The protocol:
This protocol followed a method previously published in Nature Protocols^36. The hESCs were detached by 0.5 mM EDTA (Life Technologies, Camarillo, C, USA), seeded on VTN-N coated culture plates (Corning) and maintained for 48 hours in mTeSR 1 medium. Then, the medium was refreshed daily for all following steps. On days 1-2, the medium was replaced with fresh CDM-PVA (consisting of 0.5 g of PVA (Sigma) dissolved in 250 ml of IMDM/F-12, GlutaMAX (Invitrogen), 250 ml of IMDM (Invitrogen), 5 ml of chemically defined lipid concentrate (Invitrogen), 20 of thioglycerol 97% (Sigma), 350 of insulin (10 mg/ml; Roche), 250 of transferrin (30 mg/ml; Roche) plus Activin A (100 ng/ml; R&D), bFGF (80 ng/ml; R&D), BMP4 (10 ng/ml; R&D), and […] of LY-294002 (Promega). On day 3, the cells were differentiated in RPMI Medium supplemented with Activin A (100 ng/ml) and bFGF (80 ng/ml). On days 4-6, the cells were expanded in RPMI medium supplemented with Activin A (50 ng/ml). On day 7, the cells were passaged and re-plated 105,000 cells/cm^2 cells in VTN-N coated culture plates in RPMI containing Activin A (50 ng/ml) and Y-27632 2HCl (10 μM Selleck-chem, Houston, TX, USA and Munich, Germany). Then, the cells were maintained in RPMI+Activin A (50 ng/ml) on days 8-11. The cells were differentiated into the hepatocyte endoderm and analyzed following the drug treatments. The expression of alpha-fetoprotein (A0008, Dako, Santa Clara, CA, USA) was analyzed in the hepatocyte endoderm via immunofluorescence staining.

The test system of the next data set is hPSCs. The conditions noted are these: background, literature; cited from earlier work.
Another data set has as its system hPSCs teratoma formation. The conditions noted are these: background, literature; cited from earlier work.
The next data set concerns H9 hESC-MSCs. The conditions noted are these: 2.5 μM, 24 hours. The protocol:
as §1
According to the report from Dr. Xu and colleagues^30, hESCs were cultured with 10 ng/ml BMP4 and 1 μM of A8301 for 5 days. Next, the cells were passaged on the gelatin-coated plate and the culture medium was switched to MSC culture medium [Minimum Essential Medium Eagle Alpha Modification (αMEM) medium supplemented with 20% fetal bovine serum (FBS), 1-glutamine (Gluta-MAX), 1× nonessential amino acids]. Cells were expanded within passage 5, and CD73^+ (11-0793, ThermoFisher Scientific) and CD105^+ (12-1057, ThermoFisher Scientific) double positive cells were sorted.
hESC-derived MSCs were trypsinized and washed with PBS. Then cells were incubated with anti-human CD73 FITC (ThermoFisher Scientific) and anti-human CD105 PE (ThermoFisher Scientific) for 15 minutes at 4° C. Cells were washed cells with PBS for three times. CD73^+/CD105^+ cells were sorted with the cell sorter (BD FACSAria II, BD Biosciences). Sorted cells were maintained in MSC culture medium.

The subject of a further data set is PERK/AT4/DDIT3 pathway. Conditions: through the PERK/AT4/DDIT3 pathway; literature; cited from earlier work.

With `C[C@@H]1O[C@@H](O[C@H]2C[C@@H](O)[C@]3(CO)[C@H]4[C@H](O)C[C@]5(C)[C@@H](C6=CC(=O)OC6)CC[C@]5(O)[C@@H]4CC[C@]3(O)C2)[C@H](O)[C@H](O)[C@H]1O` [Ouabain, ouabain], the “LDH assay positive, hiPSCs” value in the data set on hiPSCs is listed as “+++ (more than 70% positive cells)”. In addition, the “LDH assay positive, hESCs” value in the data set with hESCs (H9) is “+++ (more than 70% positive cells)”. The “cell death in hESCs (Alamar blue, relative cell number)” value in the data set on hESCs is listed as “dose dependent manner”. The “LDH assay positive, hepatocyte endoderm cells” value in data set [1] is listed as “−/+ (10% positive cells)”.
On to `O=c1c(O)c(-c2ccc(O)c(O)c2)oc2cc(O)cc(O)c12` [quercetin], for which the selective cell death result with hPSCs is on record as “induced selective cell death”. Also, the “teratoma formation in hPSCs” value in the data set on hPSCs teratoma formation is listed as “efficiently inhibited teratoma formation”.
Take `O=C(NNc1ccccc1)c1ccncc1` [PluriSin #1]: the “teratoma formation in hPSCs” value in the data set on hPSCs teratoma formation was “prevented teratoma formation”.
For `C[C@]12CC[C@H](O)C[C@H]1CC[C@@H]1[C@@H]2CC[C@]2(C)[C@@H](C3=CC(=O)OC3)CC[C@]12O` [Digitoxigenin, digitoxigenin], in the data set with hiPSCs, the “LDH assay positive, hiPSCs” value is on record as “+++ (more than 70% positive cells)”. In the data set with hESCs (H9), the “LDH assay positive, hESCs” value is listed as “+++ (more than 70% positive cells)”. For the same molecule, in the data set with hESCs, the “cell death in hESCs (Alamar blue, relative cell number)” value was “dose dependent manner”. Further, the “LDH assay positive, hepatocyte endoderm cells” value in data set [1] was “−/+ (10% positive cells)”.
In the case of `COCCn1c2c([n+](Cc3cnccn3)c1C)C(=O)c1ccccc1C2=O` [YM155], the selective cell death result in the data set with hPSCs was “induced selective cell death”. Also, the “teratoma formation in hPSCs” value with hPSCs teratoma formation is “efficiently inhibited teratoma formation”.
As for `C[C@]12CC[C@H](O)C[C@H]1CC[C@@H]1[C@@H]2CC[C@]2(C)[C@@H](c3ccc(=O)oc3)CC[C@]12O` [Bufalin, bufalin], in the data set on hiPSCs, the “LDH assay positive, hiPSCs” value is “+++ (more than 70% positive cells)”. Moreover, in the data set on hESCs (H9), the “cytotoxic effect (LDH release) in hESCs” value is “induced cytotoxicity” and the “LDH assay positive, hESCs” value is “+++ (more than 70% positive cells)”. In the data set on H9 hESC-MSCs, the “cytotoxicity (LDH release) in H9 hESC-MSCs” value is recorded as “do not induce cytotoxicity”. In addition, in data set [1], the “LDH assay positive, hepatocyte endoderm cells” value is on record as “−/+ (10% positive cells)”.
Take `CCCCCCCCC(=O)NCc1ccccc1` [JC011]: the ER stress result in the data set with PERK/AT4/DDIT3 pathway is “induced ER stress”.
For `C[C@H]1O[C@@H](O[C@H]2[C@@H](O)C[C@H](O[C@H]3[C@@H](O)C[C@H](O[C@H]4CC[C@@]5(C)[C@H](CC[C@@H]6[C@@H]5CC[C@]5(C)[C@@H](C7=CC(=O)OC7)CC[C@]65O)C4)O[C@@H]3C)O[C@@H]2C)C[C@H](O)[C@@H]1O` [Digitoxin, digitoxin], the “LDH assay positive, hiPSCs” value in the data set on hiPSCs is recorded as “+++ (more than 70% positive cells)”. Moreover, in the data set with hESCs (H9), the “LDH assay positive, hESCs” value is on record as “+++ (more than 70% positive cells)”. Also, the “cell death in hESCs (Alamar blue, relative cell number)” value in the data set with hESCs was “dose dependent manner”. The “LDH assay positive, hepatocyte endoderm cells” value in data set [1] is recorded as “−/+ (10% positive cells)”.
For the molecule `C[C@@H]1O[C@@H](O[C@@H]2C=C3CC[C@@H]4[C@H](CC[C@]5(C)[C@@H](c6ccc(=O)oc6)CC[C@]45O)[C@@]3(C)CC2)[C@H](O)[C@H](O)[C@H]1O` [Proscillaridin A, proscillaridin A], the “LDH assay positive, hiPSCs” value with hiPSCs is reported as “+++ (more than 70% positive cells)”. In addition, in the data set with hESCs (H9), the “cytotoxic effect (LDH release) in hESCs” value is given as “induced cytotoxicity” and the “LDH assay positive, hESCs” value is given as “+++ (more than 70% positive cells)”. The “cell death in hESCs (Alamar blue, relative cell number)” value with hESCs is reported as “dose dependent manner”. Moreover, the “cytotoxicity (LDH release) in H9 hESC-MSCs” value in the data set with H9 hESC-MSCs was “do not induce cytotoxicity”. In addition, the “LDH assay positive, hepatocyte endoderm cells” value in data set [1] was “−/+ (10% positive cells)”.

(Values after patent US12351819B2, “Method for removing undifferentiated pluripotent stem cells” (priority 2017, dated 2025).)
